Source: patent publication US20240277713A1 (Kadmon Corporation, LLC, priority 2022, published 2024)
Marks after values point to notes of the source that are not given here.

Test system: Sprague-Dawley rats
Assay: Embryo-fetal developmental toxicity study in Sprague-Dawley rats (Example 3)
Conditions: for Discharge, Brown, Vulva, times observed/animals / Discharge, Red, Vulva, times observed/animals / Ear/portion of ear missing, Ear/left, times observed/animals / Hair sparse, Abdominal region, times observed/animals / Hair sparse, Cervical region, times observed/animals / Hair sparse, Forefoot/left, times observed/animals / Hair sparse, Forefoot/right, times observed/animals / Hair sparse, Forelimb/left, times observed/animals / Hair sparse, Forelimb/right, times observed/animals / Hair sparse, Hind limb/left, times observed/animals / Hair sparse, Hind limb/right, times observed/animals / Hair sparse, Lumbar region, times observed/animals / Hair sparse, Thoracic region, times observed/animals / Scabbed area, Face, times observed/animals / Scabbed area, Forelimb/right, times observed/animals / Scabbed area, Tail, times observed/animals / Scabbed area, Thoracic region, times observed/animals / Tail missing - portion, times observed/animals: GD 6-20
Procedure: For this study, a total of 140 time-mated female rats (approximately 8 to 10 weeks of age) were obtained from Charles River Laboratories, Raleigh, North Carolina, and acclimated from the time of arrival until the time of dosing on GD 6. During the acclimation period, the animals were observed twice daily with respect to general health and any signs of disease. All animals were given a detailed clinical examination and body weights were recorded prior to selection. […] Food consumption was collected during the acclimation period.
Animals received in-life and postmorten evaluations. […] All fetuses were given an external and visceral or skeletal examination.
Detailed clinical observations were made daily from GD 6 through 20 (4 hours±1 hour postdose on dosing days).
Food consumption for main study animals was measured and recorded on the corresponding body weight days and calculated for the same intervals.
The placentae were examined grossly.
The foci, if detected, were considered early resorptions, and data from this female were included in mean calculations

In the case of CC(C)NC(=O)COc1cccc(-c2nc(Nc3ccc4[nH]ncc4c3)c3ccccc3n2)c1 [belumosudil, 2-{3-[4-(1H-indazol-5-ylamino)-2-quinazolinyl]phenoxy}-N-(propan-2-yl) acetamide], the “Maternal Body Weight Change GD 6-9” value (15 mg base/kg/day) was 10.0 g, the “Maternal Body Weight Change GD 6-18” value (15 mg base/kg/day) was 93.8 g and the “Maternal Body Weight Change GD 6-20” value (15 mg base/kg/day) was 127.9 g. For the same molecule, the “Maternal Body Weight Change GD 18-20” value (15 mg base/kg/day) was 34.0 g, the “Maternal Body Weight GD 9” value (15 mg base/kg/day) was 231.7 g and the “Maternal Body Weight GD 12” value (15 mg base/kg/day) was 257.0 g. For the same molecule, the “Maternal Body Weight GD 15” value (15 mg base/kg/day) was 272.8 g, the “Maternal Body Weight GD 18” value (15 mg base/kg/day) was 315.5 g and the “Maternal Body Weight GD 20” value (15 mg base/kg/day) was 349.6 g. For the same molecule, the “Maternal Food Consumption GD 6-9” value (15 mg base/kg/day) was 19.0, the “Maternal Food Consumption GD 6-18” value (15 mg base/kg/day) was 22.6 and the “Maternal Food Consumption GD 6-20” value (15 mg base/kg/day) was 23.2. For the same molecule, the “Maternal Food Consumption GD 18-20” value (15 mg base/kg/day) was 27.3, the “Mean Fetal Body Weight Females” value (15 mg base/kg/day) was 4.00 g and the “Mean Fetal Body Weight Genders Combined” value (15 mg base/kg/day) was 4.10 g. For the same molecule, the “Mean Fetal Body Weight Males” value (15 mg base/kg/day) was 4.19 g, the “Adjusted Final Body Weight, Mean” value (15 mg base/kg/day (N = 25)) was 278.5 g and the “Adjusted Weight Change From Day 6, Mean” value (15 mg base/kg/day (N = 25)) was 56.8. For the same molecule, the “Final Body Weight, Mean” value (15 mg base/kg/day (N = 25)) was 349.6 g, the “Gravid Uterine Weight, Mean” value (15 mg base/kg/day (N = 25)) was 71.0 g and the “Discharge, Brown, Vulva, times observed/animals” value (15 mg base/kg/day) was 1/1. For the same molecule, the “Discharge, Red, Vulva, times observed/animals” value (15 mg base/kg/day) was 0/0, the “Ear/portion of ear missing, Ear/left, times observed/animals” value (“Ear/portion of ear missing, Ear/left” for short) (15 mg base/kg/day) was 13/1 and the “Hair sparse, Abdominal region, times observed/animals” value (15 mg base/kg/day) was 7/1. The “Hair sparse, Cervical region, times observed/animals” value (15 mg base/kg/day) was 0/0, the “Hair sparse, Forefoot/left, times observed/animals” value (“Hair sparse, Forefoot/left” for short) (15 mg base/kg/day) was 4/2 and the “Hair sparse, Forefoot/right, times observed/animals” value (shortened to “Hair sparse, Forefoot/right”) (15 mg base/kg/day) was 0/0. The “Hair sparse, Forelimb/left, times observed/animals” value (“Hair sparse, Forelimb/left” for short) (15 mg base/kg/day) was 12/3, the “Hair sparse, Forelimb/right, times observed/animals” value (shortened to “Hair sparse, Forelimb/right”) (15 mg base/kg/day) was 17/3 and the “Hair sparse, Hind limb/left, times observed/animals” value (“Hair sparse, Hind limb/left” for short) (15 mg base/kg/day) was 0/0. For the same molecule, the “Hair sparse, Hind limb/right, times observed/animals” value (“Hair sparse, Hind limb/right” below) (15 mg base/kg/day) was 0/0, the “Hair sparse, Lumbar region, times observed/animals” value (15 mg base/kg/day) was 0/0 and the “Hair sparse, Thoracic region, times observed/animals” value (15 mg base/kg/day) was 0/0. For the same molecule, the “Scabbed area, Face, times observed/animals” value (15 mg base/kg/day) was 7/1, the “Scabbed area, Forelimb/right, times observed/animals” value (“Scabbed area, Forelimb/right” below) (15 mg base/kg/day) was 4/1 and the “Scabbed area, Tail, times observed/animals” value (15 mg base/kg/day) was 0/0. For the same molecule, the “Scabbed area, Thoracic region, times observed/animals” value (15 mg base/kg/day) was 1/1, the “Tail missing - portion, times observed/animals” value (15 mg base/kg/day) was 0/0 and the “Maternal Body Weight Change GD 6-9” value (50 mg base/kg/day) was 6.2^b g. For the same molecule, the “Maternal Body Weight Change GD 6-18” value (50 mg base/kg/day) was 78.8^b g, the “Maternal Body Weight Change GD 6-20” value (50 mg base/kg/day) was 115.9^b g and the “Maternal Body Weight Change GD 18-20” value (50 mg base/kg/day) was 37.1 g. For the same molecule, the “Maternal Body Weight GD 9” value (50 mg base/kg/day) was 225.5^a g, the “Maternal Body Weight GD 12” value (50 mg base/kg/day) was 246.3^b g and the “Maternal Body Weight GD 15” value (50 mg base/kg/day) was 262.6^b g. For the same molecule, the “Maternal Body Weight GD 18” value (50 mg base/kg/day) was 298.1^b g, the “Maternal Body Weight GD 20” value (50 mg base/kg/day) was 335.2^b g and the “Maternal Food Consumption GD 6-9” value (50 mg base/kg/day) was 15.5^b. The “Maternal Food Consumption GD 6-18” value (50 mg base/kg/day) was 20.0^b, the “Maternal Food Consumption GD 6-20” value (50 mg base/kg/day) was 21.3^b and the “Maternal Food Consumption GD 18-20” value (50 mg base/kg/day) was 29.0. For the same molecule, the “Mean Fetal Body Weight Females” value (50 mg base/kg/day) was 3.94 g, the “Mean Fetal Body Weight Genders Combined” value (50 mg base/kg/day) was 4.06 g and the “Mean Fetal Body Weight Males” value (50 mg base/kg/day) was 4.19 g. For the same molecule, the “Adjusted Final Body Weight, Mean” value (50 mg base/kg/day (N = 25)) was 266.4^b g, the “Adjusted Weight Change From Day 6, Mean” value (50 mg base/kg/day (N = 25)) was 47.1^b and the “Final Body Weight, Mean” value (50 mg base/kg/day (N = 25)) was 335.2^b g. The “Gravid Uterine Weight, Mean” value (50 mg base/kg/day (N = 25)) was 68.8 g, the “Discharge, Brown, Vulva, times observed/animals” value (50 mg base/kg/day) was 1/1 and the “Discharge, Red, Vulva, times observed/animals” value (50 mg base/kg/day) was 4/4. For the same molecule, the “Ear/portion of ear missing, Ear/left” value (50 mg base/kg/day) was 0/0, the “Hair sparse, Abdominal region, times observed/animals” value (50 mg base/kg/day) was 0/0 and the “Hair sparse, Cervical region, times observed/animals” value (50 mg base/kg/day) was 8/1. For the same molecule, the “Hair sparse, Forefoot/left” value (50 mg base/kg/day) was 0/0, the “Hair sparse, Forefoot/right” value (50 mg base/kg/day) was 0/0 and the “Hair sparse, Forelimb/left” value (50 mg base/kg/day) was 10/2. For the same molecule, the “Hair sparse, Forelimb/right” value (50 mg base/kg/day) was 10/2, the “Hair sparse, Hind limb/left” value (50 mg base/kg/day) was 0/0 and the “Hair sparse, Hind limb/right” value (50 mg base/kg/day) was 0/0. For the same molecule, the “Hair sparse, Lumbar region, times observed/animals” value (50 mg base/kg/day) was 0/0, the “Hair sparse, Thoracic region, times observed/animals” value (50 mg base/kg/day) was 7/1 and the “Scabbed area, Face, times observed/animals” value (50 mg base/kg/day) was 0/0. For the same molecule, the “Scabbed area, Forelimb/right” value (50 mg base/kg/day) was 0/0, the “Scabbed area, Tail, times observed/animals” value (50 mg base/kg/day) was 0/0 and the “Scabbed area, Thoracic region, times observed/animals” value (50 mg base/kg/day) was 0/0. For the same molecule, the “Tail missing - portion, times observed/animals” value (50 mg base/kg/day) was 0/0, the “Fetal Body Weight Females, % Difference From Control” value (150 mg base/kg/day) was −7.7% and the “Fetal Body Weight Genders Combined, % Difference From Control” value (150 mg base/kg/day) was −7.3%. The “Fetal Body Weight Males, % Difference From Control” value (150 mg base/kg/day) was −8.0%, the “Maternal Body Weight Change GD 6-9” value (150 mg base/kg/day) was −4.2^b g and the “Maternal Body Weight Change GD 6-18” value (150 mg base/kg/day) was 55.4^b g. For the same molecule, the “Maternal Body Weight Change GD 6-20” value (150 mg base/kg/day) was 97.1^b g, the “Maternal Body Weight Change GD 18-20” value (150 mg base/kg/day) was 41.8^b g and the “Maternal Body Weight GD 9” value (150 mg base/kg/day) was 215.8^b g. The “Maternal Body Weight GD 12” value (150 mg base/kg/day) was 232.1^b g, the “Maternal Body Weight GD 15” value (150 mg base/kg/day) was 244.0^b g and the “Maternal Body Weight GD 18” value (150 mg base/kg/day) was 275.3^b g. The “Maternal Body Weight GD 20” value (150 mg base/kg/day) was 317.0^b g, the “Maternal Food Consumption GD 6-9” value (150 mg base/kg/day) was 10.0^b and the “Maternal Food Consumption GD 6-18” value (150 mg base/kg/day) was 15.4^b. For the same molecule, the “Maternal Food Consumption GD 6-20” value (150 mg base/kg/day) was 17.4^b, the “Maternal Food Consumption GD 18-20” value (150 mg base/kg/day) was 29.4 and the “Mean Fetal Body Weight Females” value (150 mg base/kg/day) was 3.72 g. The “Mean Fetal Body Weight Genders Combined” value (150 mg base/kg/day) was 3.82 g, the “Mean Fetal Body Weight Males” value (150 mg base/kg/day) was 3.91 g and the “Adjusted Final Body Weight, Mean” value (150 mg base/kg/day (N = 20)) was 252.7^b g. The “Adjusted Weight Change From Day 6, Mean” value (150 mg base/kg/day (N = 20)) was 32.8^b, the “Final Body Weight, Mean” value (150 mg base/kg/day (N = 20)) was 317.0^b g and the “Gravid Uterine Weight, Mean” value (150 mg base/kg/day (N = 20)) was 64.3 g. The “Discharge, Brown, Vulva, times observed/animals” value (150 mg base/kg/day) was 4/4, the “Discharge, Red, Vulva, times observed/animals” value (150 mg base/kg/day) was 1/1 and the “Ear/portion of ear missing, Ear/left” value (150 mg base/kg/day) was 15/1. For the same molecule, the “Hair sparse, Abdominal region, times observed/animals” value (150 mg base/kg/day) was 0/0, the “Hair sparse, Cervical region, times observed/animals” value (150 mg base/kg/day) was 0/0 and the “Hair sparse, Forefoot/left” value (150 mg base/kg/day) was 27/3. For the same molecule, the “Hair sparse, Forefoot/right” value (150 mg base/kg/day) was 23/3, the “Hair sparse, Forelimb/left” value (150 mg base/kg/day) was 14/2 and the “Hair sparse, Forelimb/right” value (150 mg base/kg/day) was 30/3. For the same molecule, the “Hair sparse, Hind limb/left” value (150 mg base/kg/day) was 6/1, the “Hair sparse, Hind limb/right” value (150 mg base/kg/day) was 6/1 and the “Hair sparse, Lumbar region, times observed/animals” value (150 mg base/kg/day) was 12/1. The “Hair sparse, Thoracic region, times observed/animals” value (150 mg base/kg/day) was 12/2, the “Scabbed area, Face, times observed/animals” value (150 mg base/kg/day) was 0/0 and the “Scabbed area, Forelimb/right” value (150 mg base/kg/day) was 0/0. For the same molecule, the “Scabbed area, Tail, times observed/animals” value (150 mg base/kg/day) was 13/2, the “Scabbed area, Thoracic region, times observed/animals” value (150 mg base/kg/day) was 0/0 and the “Tail missing - portion, times observed/animals” value (150 mg base/kg/day) was 11/1. The “NOAEL for fetal developmental toxicity” value (pregnant rats) was 50 mg base/kg/day, the “NOAEL for maternal toxicity” value (pregnant rats) was 15 mg base/kg/day and the mortality (rat, in vivo) was “No treatment related mortality”.
